# Measured values from PubChem BioAssay AID1963422 (Molecular Pharmacology Branch, DTP, NCI, 2024).
# Test system: 463943-066-T-J2-PDC complex spheroid growth
# Assay: Anticancer human tumor 463943-066-T-J2-PDC patient-derived colon adenocarcinoma cell line growth inhibition [Asc]
# Conditions: for IC50: curve of first compound; for viability, T/C: stronger effect = lower value
# Method in brief: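 Complex spheroids combining tumor cells with HUVEC endothelial cells and human MSCs, at 37 degrees C, 5% CO2; agents tested alone or combined, half-log dilutions from at or near clinical Cmax, or 10 microM if Cmax unknown.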
# [1] = second compound 0.00949 µM, first compound 0.0316 µM
# [2] = second compound 0.00949 µM, first compound 0.1 µM
# [3] = second compound 0.00949 µM, first compound 0.316 µM
# [4] = second compound 0.00949 µM, first compound 1 µM
# [5] = second compound 0.03 µM, first compound 0.0316 µM
# [6] = second compound 0.03 µM, first compound 0.1 µM
# [7] = second compound 0.03 µM, first compound 0.316 µM
# [8] = second compound 0.03 µM, first compound 1 µM
# [9] = second compound 0.0949 µM, first compound 0.0316 µM
# [10] = second compound 0.0949 µM, first compound 0.1 µM
# [11] = second compound 0.0949 µM, first compound 0.316 µM
# [12] = second compound 0.0949 µM, first compound 1 µM
# [13] = second compound 0.3 µM, first compound 0.0316 µM
# [14] = second compound 0.3 µM, first compound 0.1 µM
# [15] = second compound 0.3 µM, first compound 0.316 µM
# [16] = second compound 0.3 µM, first compound 1 µM
# [17] = second compound 0.949 µM, first compound 0.0316 µM
# [18] = second compound 0.949 µM, first compound 0.1 µM
# [19] = second compound 0.949 µM, first compound 0.316 µM
# [20] = second compound 0.949 µM, first compound 1 µM
# [21] = second compound 3 µM, first compound 0.0316 µM
# [22] = second compound 3 µM, first compound 0.1 µM
# [23] = second compound 3 µM, first compound 0.316 µM
# [24] = second compound 3 µM, first compound 1 µM
# 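Further: compound exposure lasted 7 days.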
# 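Wherever viability, T/C is given: 100% = DMSO vehicle control wells.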
structure (smiles),measurement,setting,value
COc1c(OCCCN2CCOCC2)ccc2c3n(c(=NC(=O)c4cnc(N)nc4)nc12)CCN3 + CCN1C(C(=O)NC23CCC(C(=O)O)(CC2)CC3)C(c2cccc(Cl)c2F)C2(C(=O)Nc3cc(Cl)ccc32)C12CCCCC2,IC50,second compound 0.00949 µM,0.41 µM
same,IC50,second compound 0.03 µM,0.271 µM
same,IC50,second compound 0.0949 µM,0.231 µM
same,IC50,second compound 0.3 µM,0.0711 µM
same,IC50,second compound 0.949 µM,0.0447 µM
same,IC50,second compound 3 µM,0.0608 µM
same,"viability, T/C","second compound 0.00949 µM, first compound 0.00316 µM",89.5%
same,"viability, T/C","second compound 0.00949 µM, first compound 0.01 µM",82.9%
same,"viability, T/C",[1],74%
same,"viability, T/C",[2],69.2%
same,"viability, T/C",[3],51.2%
same,"viability, T/C",[4],39.4%
same,"viability, T/C","second compound 0.03 µM, first compound 0.00316 µM",95.3%
same,"viability, T/C","second compound 0.03 µM, first compound 0.01 µM",88.5%
same,"viability, T/C",[5],71.5%
same,"viability, T/C",[6],61.2%
same,"viability, T/C",[7],50.3%
same,"viability, T/C",[8],33.7%
same,"viability, T/C","second compound 0.0949 µM, first compound 0.00316 µM",87.3%
same,"viability, T/C","second compound 0.0949 µM, first compound 0.01 µM",84.1%
same,"viability, T/C",[9],71.4%
same,"viability, T/C",[10],59.3%
same,"viability, T/C",[11],47.4%
same,"viability, T/C",[12],33.6%
same,"viability, T/C","second compound 0.3 µM, first compound 0.00316 µM",73%
same,"viability, T/C","second compound 0.3 µM, first compound 0.01 µM",72.5%
same,"viability, T/C",[13],61.9%
same,"viability, T/C",[14],44.4%
same,"viability, T/C",[15],37.1%
same,"viability, T/C",[16],32%
same,"viability, T/C","second compound 0.949 µM, first compound 0.00316 µM",68.5%
same,"viability, T/C","second compound 0.949 µM, first compound 0.01 µM",62.5%
same,"viability, T/C",[17],53.4%
same,"viability, T/C",[18],42.2%
same,"viability, T/C",[19],35.1%
same,"viability, T/C",[20],30.4%
same,"viability, T/C","second compound 3 µM, first compound 0.00316 µM",65.3%
same,"viability, T/C","second compound 3 µM, first compound 0.01 µM",64.4%
same,"viability, T/C",[21],53.7%
same,"viability, T/C",[22],45.4%
same,"viability, T/C",[23],39.1%
same,"viability, T/C",[24],29.8%
NC(=O)C(=Cn1cnc(-c2cc(C(F)(F)F)cc(C(F)(F)F)c2)n1)c1cncnc1 + CNC(C)C(=O)NC1CN(S(=O)(=O)c2cccc(S(=O)(=O)N3CCC4CCC(C(=O)NC(c5ccccc5)c5ccccc5)N4C(=O)C(NC(=O)C(C)NC)C3)c2)CCC2CCC(C(=O)NC(c3ccccc3)c3ccccc3)N2C1=O,IC50,second compound 0.00316 µM,> 0.3 µM
same,IC50,second compound 0.01 µM,> 0.3 µM
same,IC50,second compound 0.0316 µM,> 0.3 µM
same,IC50,second compound 0.1 µM,> 0.3 µM
same,IC50,second compound 0.316 µM,> 0.3 µM
same,IC50,second compound 1 µM,> 0.3 µM
same,"viability, T/C","second compound 0.00316 µM, first compound 0.000949 µM",84.3%
same,"viability, T/C","second compound 0.00316 µM, first compound 0.003 µM",77.2%
same,"viability, T/C","second compound 0.00316 µM, first compound 0.00949 µM",77.4%
same,"viability, T/C","second compound 0.00316 µM, first compound 0.03 µM",78.7%
same,"viability, T/C","second compound 0.00316 µM, first compound 0.0949 µM",73.2%
same,"viability, T/C","second compound 0.00316 µM, first compound 0.3 µM",64.8%
same,"viability, T/C","second compound 0.01 µM, first compound 0.000949 µM",95.8%
same,"viability, T/C","second compound 0.01 µM, first compound 0.003 µM",87.6%
same,"viability, T/C","second compound 0.01 µM, first compound 0.00949 µM",80.8%
same,"viability, T/C","second compound 0.01 µM, first compound 0.03 µM",84.9%
same,"viability, T/C","second compound 0.01 µM, first compound 0.0949 µM",85.1%
same,"viability, T/C","second compound 0.01 µM, first compound 0.3 µM",65.3%
same,"viability, T/C","second compound 0.0316 µM, first compound 0.000949 µM",82.4%
same,"viability, T/C","second compound 0.0316 µM, first compound 0.003 µM",81.2%
same,"viability, T/C","second compound 0.0316 µM, first compound 0.00949 µM",80.4%
same,"viability, T/C","second compound 0.0316 µM, first compound 0.03 µM",88.3%
same,"viability, T/C","second compound 0.0316 µM, first compound 0.0949 µM",83.9%
same,"viability, T/C","second compound 0.0316 µM, first compound 0.3 µM",66.6%
same,"viability, T/C","second compound 0.1 µM, first compound 0.000949 µM",90.7%
same,"viability, T/C","second compound 0.1 µM, first compound 0.003 µM",82.6%
same,"viability, T/C","second compound 0.1 µM, first compound 0.00949 µM",82.5%
same,"viability, T/C","second compound 0.1 µM, first compound 0.03 µM",85%
same,"viability, T/C","second compound 0.1 µM, first compound 0.0949 µM",80.5%
same,"viability, T/C","second compound 0.1 µM, first compound 0.3 µM",67.3%
same,"viability, T/C","second compound 0.316 µM, first compound 0.000949 µM",85.2%
same,"viability, T/C","second compound 0.316 µM, first compound 0.003 µM",82.4%
same,"viability, T/C","second compound 0.316 µM, first compound 0.00949 µM",82.5%
same,"viability, T/C","second compound 0.316 µM, first compound 0.03 µM",78.9%
same,"viability, T/C","second compound 0.316 µM, first compound 0.0949 µM",80.3%
same,"viability, T/C","second compound 0.316 µM, first compound 0.3 µM",64.2%
same,"viability, T/C","second compound 1 µM, first compound 0.000949 µM",78.2%
same,"viability, T/C","second compound 1 µM, first compound 0.003 µM",91.9%
same,"viability, T/C","second compound 1 µM, first compound 0.00949 µM",78.5%
same,"viability, T/C","second compound 1 µM, first compound 0.03 µM",77.4%
same,"viability, T/C","second compound 1 µM, first compound 0.0949 µM",73.3%
same,"viability, T/C","second compound 1 µM, first compound 0.3 µM",58.5%
O=C(c1cc(Cc2n[nH]c(=O)c3ccccc23)ccc1F)N1CCN(C(=O)C2CC2)CC1 + CCN1C(C(=O)NC23CCC(C(=O)O)(CC2)CC3)C(c2cccc(Cl)c2F)C2(C(=O)Nc3cc(Cl)ccc32)C12CCCCC2,IC50,second compound 0.00949 µM,> 10 µM
same,IC50,second compound 0.03 µM,> 10 µM
same,IC50,second compound 0.0949 µM,> 10 µM
same,IC50,second compound 0.3 µM,> 10 µM
same,IC50,second compound 0.949 µM,> 10 µM
same,IC50,second compound 3 µM,> 10 µM
same,"viability, T/C",[1],99.4%
same,"viability, T/C",[2],102%
same,"viability, T/C",[3],95.9%
same,"viability, T/C",[4],104%
same,"viability, T/C","second compound 0.00949 µM, first compound 3.16 µM",106%
same,"viability, T/C","second compound 0.00949 µM, first compound 10 µM",91.5%
same,"viability, T/C",[5],103%
same,"viability, T/C",[6],88.8%
same,"viability, T/C",[7],94.6%
same,"viability, T/C",[8],97.4%
same,"viability, T/C","second compound 0.03 µM, first compound 3.16 µM",96.9%
same,"viability, T/C","second compound 0.03 µM, first compound 10 µM",89.9%
same,"viability, T/C",[9],98.5%
same,"viability, T/C",[10],85.4%
same,"viability, T/C",[11],92.7%
same,"viability, T/C",[12],89.8%
same,"viability, T/C","second compound 0.0949 µM, first compound 3.16 µM",89.1%
same,"viability, T/C","second compound 0.0949 µM, first compound 10 µM",81.4%
same,"viability, T/C",[13],87.9%
same,"viability, T/C",[14],80.1%
same,"viability, T/C",[15],83.4%
same,"viability, T/C",[16],83.2%
same,"viability, T/C","second compound 0.3 µM, first compound 3.16 µM",76.4%
same,"viability, T/C","second compound 0.3 µM, first compound 10 µM",83.7%
same,"viability, T/C",[17],76.7%
same,"viability, T/C",[18],75.2%
same,"viability, T/C",[19],74.3%
same,"viability, T/C",[20],75.8%
same,"viability, T/C","second compound 0.949 µM, first compound 3.16 µM",75.5%
same,"viability, T/C","second compound 0.949 µM, first compound 10 µM",72%
same,"viability, T/C",[21],72.3%
same,"viability, T/C",[22],69.1%
same,"viability, T/C",[23],70.9%
same,"viability, T/C",[24],71.7%
same,"viability, T/C","second compound 3 µM, first compound 3.16 µM",70.6%
same,"viability, T/C","second compound 3 µM, first compound 10 µM",74.7%
